Measurements from ChEMBL document CHEMBL1135403, “Nanomolar inhibitors of Staphylococcus aureus methionyl tRNA synthetase with potent antibacterial activity against gram-positive pathogens” (J Med Chem, 2002).
In brackets after ≈: the same amount, converted by molar mass.

Legend:
Enterococcus faecalis [1] = test: MIC required to inhibit 90% of the growth of Enterococcus faecalis (n = 10); assay type: functional
Staphylococcus aureus [2] = test: In vitro minimum inhibitory activity against Staphylococcus aureus Oxford strain; assay type: functional
Staphylococcus aureus [3] = test: In vitro inhibitory concentration against Staphylococcus aureus Methionyl tRNA synthetase; assay type: functional
Enterococcus faecalis [4] = test: In vitro minimum inhibitory activity against Enterococcus faecalis 7 strain; assay type: functional
Staphylococcus aureus [5] = test: MIC required to inhibit 90% of the growth of Staphylococcus aureus (n = 31); assay type: functional
Staphylococcus aureus [6] = test: In vitro minimum inhibitory activity against Staphylococcus aureus WCUH29 strain; assay type: functional
Enterococcus faecalis [7] = test: In vitro minimum inhibitory activity against Enterococcus faecalis 1 strain; assay type: functional
Enterococcus faecium = test: MIC required to inhibit 90% of the growth of Enterococcus faecium (n = 10); assay type: functional
[8] = tested on: Staphylococcus epidermidis; test: MIC required to inhibit 90% of the growth of Staphylococcus epidermidis (n = 10); assay type: functional
Staphylococcus aureus [9] = test: In vivo efficacy against Staphylococcus aureus WCUH29 in a Groin Abscess infection in rats at a dose of 21 mg/kg; log10 cfu; assay type: functional
Nucleic Acid = test: In vitro inhibitory concentration against tRNA synthetases, in a pyrophosphate exchange assay; assay type: functional, Staphylococcus aureus
Staphylococcus aureus [10] = test: In vitro antibacterial activity and competitive kinetics with respect to methionine; assay type: functional, organism-based
Staphylococcus aureus [11] = test: In vivo efficacy against Staphylococcus aureus WCUH29 in a Groin Abscess infection in rats at a dose of 50 mg/kg; log10 cfu; assay type: functional

Row | SMILES | MIC90 (Enterococcus faecalis [1]) [µg/mL] | MIC (Staphylococcus aureus [2]) [µg/mL] | IC50 (Staphylococcus aureus [3]) [nM] | MIC (Enterococcus faecalis [4]) [µg/mL] | MIC90 (Staphylococcus aureus [5]) [µg/mL] | MIC (Staphylococcus aureus [6]) [µg/mL] | MIC (Enterococcus faecalis [7]) [µg/mL] | MIC90 (Enterococcus faecium) [µg/mL] | MIC90 [8] [µg/mL] | Bacterial counts (Staphylococcus aureus [9]) | IC50 (Nucleic Acid) [nM] | Ki (Staphylococcus aureus [10]) [nM] | Bacterial counts (Staphylococcus aureus [11])
1 | Oc1cc(NCCCNC2CCNc3c(Br)cc(Br)cc32)nc2ccccc12 (configuration not stated) | 0.03 (≈ 0.0593 µM) | < 0.06 | 8 | < 0.06 | 0.5 (≈ 0.988 µM) | 0.125 (≈ 0.247 µM) | < 0.06 | < 0.016 | 0.5 (≈ 0.988 µM) | – | – | – | –
2 | CCc1cc(I)c2c(c1)C(NCCCNc1cc(=O)c3ccccc3[nH]1)CCN2 (configuration not stated) | 0.25 (≈ 0.498 µM) | 0.25 (≈ 0.498 µM) | – | 0.125 (≈ 0.249 µM) | 1 (≈ 1.99 µM) | 0.25 (≈ 0.498 µM) | < 0.06 | 0.06 (≈ 0.119 µM) | 1 (≈ 1.99 µM) | 3.9 | 1.4 | – | –
3 | O=c1cc(NCCCNCc2ccc(Cl)c(Cl)c2)[nH]c2ccccc12 | – | 4 (≈ 10.6 µM) | 16 | 2 (≈ 5.32 µM) | – | 8 (≈ 21.3 µM) | 2 (≈ 5.32 µM) | – | – | – | – | 5 | –
4 | CC1(C)S[C@@H]2[C@H](NC(=O)[C@H](N)c3ccc(O)cc3)C(=O)N2[C@H]1C(=O)O [AMOXICILLIN] | > 16 | 0.125 (≈ 0.342 µM) | – | 0.5 (≈ 1.37 µM) | > 16 | > 64 | 0.5 (≈ 1.37 µM) | > 16 | 8 (≈ 21.9 µM) | – | – | – | –
5 | CC[C@H]1OC(=O)[C@H](C)[C@@H](O[C@H]2C[C@@](C)(OC)[C@@H](O)[C@H](C)O2)[C@H](C)[C@@H](O[C@@H]2O[C@H](C)C[C@H](N(C)C)[C@H]2O)[C@](C)(O)C[C@@H](C)C(=O)[C@H](C)[C@@H](O)[C@]1(C)O [ERYTHROMYCIN] | – | – | – | – | – | – | – | – | – | – | – | – | 3.7
6 | C/C(=C\C(=O)OCCCCCCCCC(=O)O)C[C@@H]1OC[C@H](C[C@@H]2O[C@H]2[C@@H](C)[C@H](C)O)[C@@H](O)[C@H]1O [MUPIROCIN] | – | – | – | 64 (≈ 128 µM) | – | 0.25 (≈ 0.499 µM) | 64 (≈ 128 µM) | – | – | – | – | – | –
